Here are results for 4 molecules from paper PMC9586938, “Picomolar fluorescent probes for compound affinity determination to carbonic anhydrase IX expressed in live cancer cells” (Scientific Reports, 2022).

Data set [1] concerns the target T1, CAVA (Homo sapiens, UniProt P35218).
T1 construct: made in house; host or cells: E. coli
The data set is described as follows: Thermal shift assay (TSA), recombinant CAVA. Type of data set: binding. The settings on record: 37 °C, pH 7.0, observed (not intrinsic). The protocol: (§1) The binding affinities of all fluorescein-containing compounds were determined for all 12 catalytically active CA isozymes by the thermal shift assay (TSA). […] However, the SFA technique cannot determine the affinities lower than the enzyme concentration used in the assay. […] In addition, we used isothermal titration calorimetry (ITC), the standard assay to determine affinity and enthalpy of protein–ligand binding. […] Therefore, ITC was used only to determine the enthalpy of interaction and confirm the ordering of compound affinities.
(§2) All twelve catalytically active human CA isozymes were prepared recombinantly as previously described. Isozymes CAIX, CAXII, and CAXIV were the catalytic domains of the proteins[14],[38]. All isozymes were expressed in E. coli except CAIX that has been prepared in mammalian cells. The proteins were chromatographically purified on ion-exchange or benzene sulfonamide containing affinity columns. Protein MW was confirmed by mass spectrometry with 1 Da precision as predicted from gene sequence.
(§3) Compound affinities for the twelve catalytically active CA isozymes were determined by the thermal shift assay as previously described[30],[39]. Protein solutions containing 1,8-anilinonaphthalenesulfonate fluorescent probe were heated from 25 to 100 °C at a rate of one degree per minute while following the fluorescence of the probe. The temperature scanning curves provided the melting temperature Tm of the protein. The Tm has a distinct dependence on the concentration of a compound. Stronger binders shift the Tm to a greater extent than the weak binders. The Tm dependencies on compound concentration were fit to obtain the affinity Kd[40].

Data set [2] concerns the target T2, CAIII (Homo sapiens, UniProt P07451).
T2 construct: made in house; host or cells: E. coli
The data set is described as follows: Thermal shift assay (TSA), recombinant CAIII. Type of data set: binding. To be noted: 37 °C, pH 7.0, observed (not intrinsic). How it is done:
as §1, §2, §3

Data set [3] concerns the target T3, CAXIV (Homo sapiens, UniProt Q9ULX7).
T3 construct: Isozymes CAIX, CAXII, and CAXIV were the catalytic domains of the proteins; made in house; host or cells: E. coli
The data set is described as follows: Thermal shift assay (TSA), recombinant CAXIV. The class given is binding. To be noted: 37 °C, pH 7.0, observed (not intrinsic).

In data set [4] the target is T4, CAIV (Homo sapiens, UniProt P22748).
T4 construct: made in house; host or cells: E. coli
The data set is described as follows: Thermal shift assay (TSA), recombinant CAIV. Type of data set: binding. To be noted: 37 °C, pH 7.0, observed (not intrinsic).

The test system of data set [5] is HeLa CAIX-KO and normoxia-grown WT HeLa cells. The data set is described as follows: Fluorescein-labeled compound dosing to CAIX-KO and normoxia-grown HeLa cells (non-specific binding). Type of data set: cell-based, human. The settings on record: micromolar concentration range, Fig. 9B, 9C. The protocol: (§4) HeLa cell culture was grown in 12-well plates, either under hypoxia (1% O2) or under normoxia (21% O2), for 70 to 76 h. The medium was removed. Then 200 µL of serially diluted compound (twelve twofold steps) in the FB medium, usually starting at 80 nM (80, 40, 20, …, 0 nM), was added and incubated at 37 ℃ under normoxia in the CO2 incubator for 20 min (2 or 5 min in some experiments where specified). Then the compound solution was removed and the cells were washed 3 times for 1.5–2 min with 400 µL of PBS at RT. Then 180 µL of TrypLe express enzyme (ThermoFisher) was added to each well and incubated in CO2 incubator for 5 min to 10 min until the cells deattached from the surface. After addition of 20 µL of Defined Trypsin Inhibitor solution (ThermoFisher), cells were resuspended by pipetting and 150 µL of the suspension from each well were transferred to black Thermo Scientific™ Nunc MicroWell 96-Well Optical-Bottom Plates for fluorescence and absorbance measurements. The fluorescence was recorded at 485 nm excitation and 520 nm emission wavelengths in the plate reader (Synergy HTX, BioTek). The absorbance was recorded at 650 nm to measure the optical density of the cell suspension.
(§5) The compound solution was prepared by weighing 3–5 mg of a purified compound and dissolving in DMSO at 10 mM concentration. The 1 mM compound stock in DMSO was prepared by taking 10 µL of 10 mM stock and adding to 90 µL DMSO. The 10 µM compound stock was prepared by taking 10 µL of 1 mM compound stock in DMSO and adding 990 µL of the FB medium (this stock contained 1% of DMSO). Then 80 nM compound solution was prepared by taking 10 µL of 10 µM solution and adding 1.24 mL of the FB medium and placed to the first Eppendorf tube. Then 300 µL of FB medium were added to the Eppendorf tubes 2 to 12. A serial dilution was performed by taking 300 µL of solution from tube 1 to 2, then from 2 to 3 and so on while mixing vigorously at each step. No solution was transferred to the last tube thus it contained only FB medium and no compound. Then 200 µL from 12 tubes were transferred to the 12 wells of cell culture-containing 12-well plate, starting from the lowest concentration.
This equation was fit to the dosing curves of several fluorescently-labeled ligands to both the cells grown in hypoxia and in normoxia, both to the WT and CRISPR-Cas9 CAIX knockout cells. The cells bound both the GZ19-32 and GZ20-40 ligands that differed only in the length of the linker and both contained the same head-group. […] Furthermore, the ligands that had their sulfonamide amino group substituted with the methyl completely abandoned their capability of binding CAIX in this concentration region. The binding was also abolished for the CAIX-KO HeLa cells.

Data set [6] concerns the target T5, CAIX expressed on HeLa cells (Homo sapiens, UniProt Q16790).
T5 construct: recombinant CAIX and endogenous CAIX expressed on the cell surface; endogenous in cells; host or cells: HeLa (WT), grown under hypoxia (1% O2)
The data set is described as follows: Fluorescein-labeled compound dosing to hypoxia-grown WT HeLa cells (Morrison single-site model). To be noted: same conditions as GZ19-32, up to about 100 nM. The class given is cell-based. The protocol: as §4, §5
Application of fluorescently labeled ligand GZ19-32 to cancer cells expressing CAIX will stain the cells in dose-dependent manner. The fraction of saturation increases from 0 to 1. The fraction of bound GZ19-32 (f) is equal to the molar concentration of bound GZ19-32 per molar concentration of total available CAIX, the so-called total protein Pt . f=GZ19-32bound/Pt
Upon GZ19-32 dosing, the observed fluorescence signal F can be modeled to change from the minimal background signal ( Fmin ) to maximal saturated value ( Fmax ): F=Fmin+Fmax-Fminf […]

The target in data set [7] is T6, CAII (Homo sapiens, UniProt P00918).
T6 construct: made in house; host or cells: E. coli
In words: Thermal shift assay (TSA), recombinant CAII. The class given is binding. The settings on record: 37 °C, pH 7.0, observed (not intrinsic). How it is done:
as §1, §2, §3

Data set [8] has as its target T7, CAVI (Homo sapiens, UniProt P23280).
T7 construct: made in house; host or cells: E. coli
In words: Thermal shift assay (TSA), recombinant CAVI. Type of data set: binding. The settings on record: 37 °C, pH 7.0, observed (not intrinsic). The protocol: as §1, §2, §3

Data set [9] concerns the target T8, CAI (Homo sapiens, UniProt P00915).
T8 construct: made in house; host or cells: E. coli
In words: Thermal shift assay (TSA), recombinant CAI. The class given is binding. The settings on record: 37 °C, pH 7.0, observed (not intrinsic).

In data set [10] the target is T9, CAXIII (Homo sapiens, UniProt Q8N1Q1).
T9 construct: made in house; host or cells: E. coli
In words: Thermal shift assay (TSA), recombinant CAXIII. Type of data set: binding. The settings on record: 37 °C, pH 7.0, observed (not intrinsic).

The target in data set [11] is T10, catalytic domain of recombinant human CAIX (Homo sapiens, UniProt Q16790).
T10 construct: Isozymes CAIX, CAXII, and CAXIV were the catalytic domains of the proteins; made in house; host or cells: mammalian cells
In words: Thermal shift assay (TSA), recombinant CAIX catalytic domain. Type of data set: binding. To be noted: for Kd: TSA, 37 °C, pH 7.0, observed (not intrinsic), read-out: Kd CAIX.

Data set [12] deals with T11, CAVII (Homo sapiens, UniProt P43166).
T11 construct: made in house; host or cells: E. coli
The data set is described as follows: Thermal shift assay (TSA), recombinant CAVII. The class given is binding. The settings on record: 37 °C, pH 7.0, observed (not intrinsic).

For data set [13], the target named is T12, CAVB (Homo sapiens, UniProt Q9Y2D0).
T12 construct: made in house; host or cells: E. coli
In words: Thermal shift assay (TSA), recombinant CAVB. The class given is binding. The settings on record: 37 °C, pH 7.0, observed (not intrinsic).

The target in data set [14] is T13, CAXII (Homo sapiens, UniProt O43570).
T13 construct: Isozymes CAIX, CAXII, and CAXIV were the catalytic domains of the proteins; made in house; host or cells: E. coli
The data set is described as follows: Thermal shift assay (TSA), recombinant CAXII. The class given is binding. To be noted: 37 °C, pH 7.0, observed (not intrinsic). The protocol:
as §1, §2, §3

The target of data set [15] is CAIX expressed on live A549 cells (Homo sapiens, UniProt Q16790). In words: Competition of unlabeled compound with 10 nM GZ19-32 on hypoxic A549 cells (competitive binding model). To be noted: ratio of KdA.

Each structure is given as a SMILES string. A value given as a limit tells only on which side of the number the result lay.

T7 sequence (P23280 18-308): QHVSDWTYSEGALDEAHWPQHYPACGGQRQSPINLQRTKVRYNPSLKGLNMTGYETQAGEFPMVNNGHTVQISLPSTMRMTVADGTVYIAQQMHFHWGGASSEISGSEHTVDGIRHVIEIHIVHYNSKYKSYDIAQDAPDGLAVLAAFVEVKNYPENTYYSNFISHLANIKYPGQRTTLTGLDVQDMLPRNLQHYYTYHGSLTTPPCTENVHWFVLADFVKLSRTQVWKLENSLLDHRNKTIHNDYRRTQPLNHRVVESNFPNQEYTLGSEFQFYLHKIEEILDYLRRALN
T13 sequence (O43570 30-289 limits assumed): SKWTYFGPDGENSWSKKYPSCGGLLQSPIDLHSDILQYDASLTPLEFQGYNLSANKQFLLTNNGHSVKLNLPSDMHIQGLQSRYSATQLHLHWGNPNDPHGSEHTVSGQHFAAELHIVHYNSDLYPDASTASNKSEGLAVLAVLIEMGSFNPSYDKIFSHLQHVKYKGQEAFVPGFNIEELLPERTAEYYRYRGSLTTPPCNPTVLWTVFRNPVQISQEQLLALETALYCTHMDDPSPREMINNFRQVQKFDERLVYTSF
T1 sequence (P35218 39-305): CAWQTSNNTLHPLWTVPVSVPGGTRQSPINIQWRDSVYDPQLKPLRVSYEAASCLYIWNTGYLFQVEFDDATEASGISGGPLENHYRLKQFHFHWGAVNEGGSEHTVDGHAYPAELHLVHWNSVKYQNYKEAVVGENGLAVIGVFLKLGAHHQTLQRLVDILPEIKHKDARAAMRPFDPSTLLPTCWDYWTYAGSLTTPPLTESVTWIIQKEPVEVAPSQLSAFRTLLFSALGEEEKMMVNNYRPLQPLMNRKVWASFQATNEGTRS
T12 sequence (Q9Y2D0 34-317): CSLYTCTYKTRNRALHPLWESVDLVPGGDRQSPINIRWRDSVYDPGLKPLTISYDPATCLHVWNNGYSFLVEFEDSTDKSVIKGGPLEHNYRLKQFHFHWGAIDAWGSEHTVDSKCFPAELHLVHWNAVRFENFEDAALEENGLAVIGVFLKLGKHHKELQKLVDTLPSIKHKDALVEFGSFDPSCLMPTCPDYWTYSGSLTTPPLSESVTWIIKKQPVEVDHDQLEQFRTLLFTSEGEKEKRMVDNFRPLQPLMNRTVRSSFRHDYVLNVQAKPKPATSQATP
T9 sequence (Q8N1Q1 whole entry): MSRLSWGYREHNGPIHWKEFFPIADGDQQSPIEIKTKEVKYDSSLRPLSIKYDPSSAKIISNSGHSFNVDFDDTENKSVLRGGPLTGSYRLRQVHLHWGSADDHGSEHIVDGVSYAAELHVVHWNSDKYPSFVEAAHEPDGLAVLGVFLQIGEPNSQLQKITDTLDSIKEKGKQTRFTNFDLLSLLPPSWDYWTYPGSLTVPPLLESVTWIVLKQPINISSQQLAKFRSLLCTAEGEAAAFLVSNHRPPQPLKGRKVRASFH
T11 sequence (P43166 whole entry): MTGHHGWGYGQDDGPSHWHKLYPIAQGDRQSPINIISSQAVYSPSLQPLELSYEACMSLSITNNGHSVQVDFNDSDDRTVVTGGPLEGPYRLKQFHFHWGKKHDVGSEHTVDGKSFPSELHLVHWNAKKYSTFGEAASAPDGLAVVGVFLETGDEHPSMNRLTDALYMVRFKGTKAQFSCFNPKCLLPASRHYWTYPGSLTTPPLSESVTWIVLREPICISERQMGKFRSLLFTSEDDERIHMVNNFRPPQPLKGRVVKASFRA
T2 sequence (P07451 whole entry): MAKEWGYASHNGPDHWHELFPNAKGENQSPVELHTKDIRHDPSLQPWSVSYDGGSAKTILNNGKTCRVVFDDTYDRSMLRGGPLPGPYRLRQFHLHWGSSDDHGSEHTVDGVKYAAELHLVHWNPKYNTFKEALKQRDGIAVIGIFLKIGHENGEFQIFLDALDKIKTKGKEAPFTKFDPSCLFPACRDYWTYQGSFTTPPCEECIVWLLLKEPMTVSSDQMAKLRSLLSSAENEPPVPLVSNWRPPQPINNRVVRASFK
T8 sequence (P00915 whole entry): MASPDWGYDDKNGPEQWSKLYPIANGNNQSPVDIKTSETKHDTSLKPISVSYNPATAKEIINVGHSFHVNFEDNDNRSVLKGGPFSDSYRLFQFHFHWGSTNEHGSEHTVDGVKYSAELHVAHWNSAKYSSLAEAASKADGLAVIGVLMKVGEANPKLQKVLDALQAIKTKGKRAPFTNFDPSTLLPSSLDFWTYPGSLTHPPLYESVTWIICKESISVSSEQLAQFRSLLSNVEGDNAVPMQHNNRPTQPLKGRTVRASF
T4 sequence (P22748 19-312): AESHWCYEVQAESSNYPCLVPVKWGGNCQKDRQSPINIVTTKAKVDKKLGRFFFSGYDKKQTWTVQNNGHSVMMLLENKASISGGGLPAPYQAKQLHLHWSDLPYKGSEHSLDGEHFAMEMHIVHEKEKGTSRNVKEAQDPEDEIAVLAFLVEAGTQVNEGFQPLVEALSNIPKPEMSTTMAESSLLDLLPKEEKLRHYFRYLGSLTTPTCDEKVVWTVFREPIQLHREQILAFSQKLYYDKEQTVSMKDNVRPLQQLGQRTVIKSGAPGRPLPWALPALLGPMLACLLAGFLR
T3 sequence (Q9ULX7 20-278 limits assumed): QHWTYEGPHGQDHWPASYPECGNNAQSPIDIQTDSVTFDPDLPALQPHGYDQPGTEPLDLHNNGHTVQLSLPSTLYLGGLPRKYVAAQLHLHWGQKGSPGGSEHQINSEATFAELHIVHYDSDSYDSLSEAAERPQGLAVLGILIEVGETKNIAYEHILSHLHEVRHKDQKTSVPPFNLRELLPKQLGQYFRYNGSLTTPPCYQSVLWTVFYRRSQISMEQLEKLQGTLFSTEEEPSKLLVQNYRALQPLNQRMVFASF

The term melting point denotes the temperature of the solid-liquid transition. A word on the Kd: it is the equilibrium constant for the complex coming apart. `NS(=O)(=O)c1c(F)c(F)c(S(=O)(=O)CCC(=O)Nc2ccc3c(c2)C(=O)OC32c3ccc(O)cc3Oc3cc(O)ccc32)c(F)c1F` [GZ19-31, N-(3',6'-dihydroxy-3-oxo-3H-spiro[isobenzofuran-1,9'-xanthen]-5-yl)-3-((2,3,5,6-tetrafluoro-4-sulfamoylphenyl)sulfonyl)propanamide] registered a melting point of 175 to 176 °C. For the same molecule, the equilibrium dissociation constant (Kd) in data set [1] was determined as 29 nM. Further, the dissociation constant Kd in data set [2] stood at 2500 nM. The Kd in [3] came out at 25 nM. For the same molecule, the Kd in data set [4] came to 140 nM. Besides, the “non-specific binding to cells” value in [5] is “bound cells in the micromolar concentration range”. Further, the “binding to hypoxia-grown HeLa cells in the nM concentration region” value in [6] was “did not bind”. Besides, in data set [7], the Kd was determined as 1.7 nM. In addition, the Kd in data set [8] is 140 nM. In addition, the Kd in [9] turned out to be 0.005 nM. The Kd in data set [10] is 1.7 nM. For the same molecule, in data set [11], the Kd came out at 1.7 nM. For the same molecule, in data set [11] (recombinant CAIX), the “binding to CAIX by TSA (in words)” value is “medium affinity (nM range)”. In addition, the Kd in [12] was found to be 2 nM. For the same molecule, the Kd in data set [13] turned out to be 20 nM. Moreover, in data set [14], the Kd was found to be 40 nM.
In the case of `CS(=O)(=O)c1c(F)c(F)c(SCCC(=O)Nc2ccc3c(c2)C(=O)OC32c3ccc(O)cc3Oc3cc(O)ccc32)c(F)c1F` [GZ19-33, N-(3',6'-dihydroxy-3-oxo-3H-spiro[isobenzofuran-1,9'-xanthen]-5-yl)-3-((2,3,5,6-tetrafluoro-4-(methylsulfonyl)phenyl)thio)propanamide], the melting point fell in the range of 181 to 182 °C. Also, the Kd in data set [1] was above 100000 nM. The dissociation constant Kd in [2] was above 100000 nM. In addition, the Kd in data set [3] was above 100000 nM. Also, the Kd in data set [4] is above 100000 nM. In data set [5], the “non-specific binding to cells” value was “bound cells in the micromolar concentration range”. The equilibrium dissociation constant (Kd) in [7] was above 100000 nM. In addition, the equilibrium dissociation constant (Kd) in [8] is above 100000 nM. Besides, the equilibrium dissociation constant (Kd) in data set [9] was above 100000 nM. For the same molecule, in data set [10], the equilibrium dissociation constant (Kd) was above 100000 nM. Besides, the dissociation constant (Kd) in data set [11] is above 100000 nM. In data set [12], the dissociation constant (Kd) was above 100000 nM. Besides, the Kd in [13] was above 100000 nM. For the same molecule, the Kd in data set [14] is above 100000 nM.
Regarding `NS(=O)(=O)c1c(F)c(F)c(S(=O)(=O)CCC(=O)NCCCC(=O)Nc2ccc3c(c2)C(=O)OC32c3ccc(O)cc3Oc3cc(O)ccc32)c(NC2CCCCCCC2)c1F` [GZ20-40, 4-(3-((2-(cyclooctylamino)-3,5,6-trifluoro-4-sulfamoylphenyl)sulfonyl)propanamido)-N-(3',6'-dihydroxy-3-oxo-3H-spiro[isobenzofuran-1,9'-xanthen]-5-yl)butanamide], the melting point was 180 to 181 °C. In addition, in data set [1], the Kd was determined as 1000 nM. Moreover, the dissociation constant (Kd) in data set [2] turned out to be 6700 nM. Besides, the dissociation constant (Kd) in data set [3] is 2.5 nM. Besides, in data set [4], the Kd was 500 nM. Moreover, in [7], the Kd was 200 nM. Also, the Kd in [8] came to 250 nM. Also, the Kd in data set [9] is 500 nM. In addition, the dissociation constant (Kd) in data set [10] turned out to be 1 nM. Moreover, in data set [11], the Kd was found to be 0.01 nM. Moreover, the dissociation constant (Kd) in [12] came out at 7 nM. In data set [13], the Kd was 33 nM. Besides, in data set [14], the equilibrium dissociation constant (Kd) came out at 7 nM.
Consider `NS(=O)(=O)c1ccc(NC(=O)Nc2ccc(F)cc2)cc1` [SLC-0111, 4-(3-(4-fluorophenyl)ureido)benzenesulfonamide, reference compound], for which the Kd in [1] is 6000 nM; in [2], above 200000 nM; in [8], 10000 nM. The “weaker binding to CAIX in A549 than HeLa cells” value in data set [15] was 6 times.
